Source: US8846947B2, “Benzimidazoles and related analogs as sirtuin modulators” (GlaxoSmithKline LLC, priority 2008, dated 2014)
Read-outs that look alike come from different tables or passages of the source.

Molecular target: T1, SIRT1 (Homo sapiens, UniProt Q96EB6)
T1 sequence (Q96EB6 1-747): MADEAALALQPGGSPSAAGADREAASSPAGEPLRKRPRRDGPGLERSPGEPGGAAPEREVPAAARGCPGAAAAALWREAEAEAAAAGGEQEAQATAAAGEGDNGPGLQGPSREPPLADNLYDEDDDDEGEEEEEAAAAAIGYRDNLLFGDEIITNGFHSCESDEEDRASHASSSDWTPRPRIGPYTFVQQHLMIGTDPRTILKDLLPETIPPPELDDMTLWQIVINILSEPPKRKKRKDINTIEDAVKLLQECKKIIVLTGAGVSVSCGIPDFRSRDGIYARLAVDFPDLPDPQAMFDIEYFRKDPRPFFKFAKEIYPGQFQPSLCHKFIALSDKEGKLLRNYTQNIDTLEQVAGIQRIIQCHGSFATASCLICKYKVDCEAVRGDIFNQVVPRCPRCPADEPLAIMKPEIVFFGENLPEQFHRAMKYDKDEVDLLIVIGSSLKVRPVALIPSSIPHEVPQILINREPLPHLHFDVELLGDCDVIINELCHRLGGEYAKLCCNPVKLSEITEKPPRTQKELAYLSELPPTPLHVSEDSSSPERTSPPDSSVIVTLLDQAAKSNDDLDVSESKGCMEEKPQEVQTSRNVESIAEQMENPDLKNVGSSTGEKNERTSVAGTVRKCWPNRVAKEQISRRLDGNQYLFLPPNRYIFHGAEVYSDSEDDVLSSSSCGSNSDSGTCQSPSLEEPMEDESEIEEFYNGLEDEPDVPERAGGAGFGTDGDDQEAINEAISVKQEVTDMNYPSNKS
Assay: Mass spectrometry based SIRT1 deacetylase activation assay (acetylated p53-derived peptide substrate)
Format: biochemical

[1] = 0.5 μM peptide substrate, 120 μM βNAD+, 10 nM SIRT1, 25 min at 25° C.
[2] = 0.5 μM peptide substrate, 120 μM βNAD+, 10 nM SIRT1, 25 min at 25° C., read-out: EC1.5
[3] = 0.5 μM peptide substrate, 120 μM βNAD+, 10 nM SIRT1, 25 minutes at 25° C.

Fold Act. (percent maximum fold activation) [1] | EC1.5 [2] [nM] | EC1.5 [3] | Fold Act. (percent maximum fold activation) [3] | Structure (SMILES) | other results
A (Fold activation >200%) | < 1000 | – | – | O=C(Nc1cccc(OCC(O)CO)c1)c1cccc2[nH]c(-c3ccccc3C(F)(F)F)nc12 (centres unmarked) [Compound 478] | –
– | – | A (EC1.5<1.0 uM) | A (Fold activation >200%) | O=C(Nc1cccc(CN2CCNCC2)n1)c1cccc2[nH]c(-c3ccccc3C(F)(F)F)nc12 [Compound 682] | –
– | – | B (EC1.5 1-25 uM) | A (Fold activation >200%) | O=C(Nc1nccs1)c1cccc2[nH]c(-c3cc(CN4CCCC4)ccc3C(F)(F)F)nc12 [Compound 871, 2-(5-(pyrrolidin-1-ylmethyl)-2-(trifluoromethyl)phenyl)-N-(thiazol-2-yl)-1H-benzo[d]imidazole-4-carboxamide] | –
– | – | B (EC1.5 1-25 uM) | A (Fold activation >200%) | Cc1cccc(-c2nc3c(C(=O)Nc4ccccn4)cccc3[nH]2)c1OCCN1CCOCC1 [Compound 627] | –
– | – | A (EC1.5<1.0 uM) | A (Fold activation >200%) | O=C(Nc1cccnc1)c1cncc2[nH]c(-c3ccc(F)cc3C(F)(F)F)nc12 [Compound 695] | –
– | – | A (EC1.5<1.0 uM) | A (Fold activation >200%) | CC1(C)CN(CCOc2ccccc2-c2nc3c(C(=O)Nc4nccs4)cccc3[nH]2)CCO1 [Compound 711] | –
– | – | – | – | O=C(Nc1ccccn1)c1cccc2[nH]c(-c3ccccc3C(F)(F)F)nc12 [Compound 248] | EC1.5: B (EC1.5 1-25 uM); Fold Act. (percent maximum fold activation): A (Fold activation >200%)
– | – | – | – | O=C(Nc1ccccn1)c1cccc2[nH]c(-c3cc(F)ccc3C(F)(F)F)nc12 [Compound 323] | EC1.5: A (EC1.5<1.0 uM); Fold Act. (percent maximum fold activation): A (Fold activation >200%)
– | – | – | – | Cc1ncsc1-c1nc2c(C(=O)Nc3nccs3)cccc2[nH]1 [Compound 293] | EC1.5: B (EC1.5 1-25 uM); Fold Act. (percent maximum fold activation): A (Fold activation >200%)
A (Fold activation >200%) | < 1000 | – | – | O=C(Nc1cccnc1)c1cccc2[nH]c(-c3cc(N4CCOCC4)ccc3C(F)(F)F)nc12 [Compound 450, 2-(5-morpholino-2-(trifluoromethyl)phenyl)-N-(pyridin-3-yl)-1H-benzo[d]imidazole-4-carboxamide] | –
A (Fold activation >200%) | < 1000 | – | – | Cc1cnc(NC(=O)c2cccc3[nH]c(-c4ccc5c(c4)CC(C)(C)O5)nc23)s1 [Compound 500] | –
– | – | – | – | O=C(Nc1cccnc1)c1cccc2[nH]c(-c3ccccc3C(F)(F)F)nc12 [Compound 243] | EC1.5: A (EC1.5<1.0 uM); Fold Act. (percent maximum fold activation): A (Fold activation >200%)
– | – | A (EC1.5<1.0 uM) | A (Fold activation >200%) | O=C(Nc1ccc(CN2CCCC2)cc1)c1cccc2[nH]c(-c3ccc(CN4CCCC4)cc3C(F)(F)F)nc12 [Compound 869, 2-(4-(pyrrolidin-1-ylmethyl)-2-(trifluoromethyl)phenyl)-N-(4-(pyrrolidin-1-ylmethyl)phenyl)-1H-benzo[d]imidazole-4-carboxamide] | –
B (Fold Activation <200%) | 1000 to 25000 | – | – | Cc1cc(Cl)cc(-c2nc3c(C(=O)Nc4ccccn4)cccc3[nH]2)c1OCCN1CCOCC1 [Compound 506] | –
– | – | B (EC1.5 1-25 uM) | B (Fold Activation <200%) | FC(F)(F)c1cccc(-c2nc3c(NCc4cccnc4)cccc3[nH]2)c1 [Compound 617] | –
A (Fold activation >200%) | < 1000 | – | – | O=C(Nc1cccc(OC2CCNCC2)c1)c1cccc2[nH]c(-c3ccccc3C(F)(F)F)nc12 [Compound 597] | –
A (Fold activation >200%) | < 1000 | – | – | Cc1cc(NC(=O)c2cccc3[nH]c(-c4cc(F)ccc4C(F)(F)F)nc23)no1 [Compound 455] | –
– | – | A (EC1.5<1.0 uM) | A (Fold activation >200%) | O=C(Nc1cccc(OC[C@H](O)CO)c1)c1cccc2[nH]c(-c3cccc(Cl)c3)nc12 [Compound 782] | –
– | – | – | – | Cc1cnc(NC(=O)c2cccc3[nH]c(-c4cc(F)ccc4C(F)(F)F)nc23)s1 [Compound 376] | EC1.5: A (EC1.5<1.0 uM); Fold Act. (percent maximum fold activation): A (Fold activation >200%)
– | – | A (EC1.5<1.0 uM) | A (Fold activation >200%) | O=C(Nc1cccc(OCC(O)CO)c1)c1cccc2[nH]c(-c3cc(F)ccc3C(F)(F)F)nc12 (centres unmarked) [Compound 680] | –

Fold Act. (percent maximum fold activation) [1] | EC1.5 [2] [nM] | EC1.5 [3] | Fold Act. (percent maximum fold activation) [3] | Structure (SMILES) | other results
– | – | A (EC1.5<1.0 uM) | A (Fold activation >200%) | O=C(Nc1cccc(OC[C@H](O)CO)c1)c1cncc2[nH]c(-c3ccccc3C(F)F)nc12 [Compound 713] | –
– | – | A (EC1.5<1.0 uM) | A (Fold activation >200%) | O=C(Nc1cccc(OC[C@@H](O)CO)c1)c1cccc2[nH]c(-c3ccc(F)cc3C(F)F)nc12 [Compound 718] | –
– | – | – | – | O=C(Nc1cnccn1)c1cccc2[nH]c(-c3cccc(N4CCOCC4)c3)nc12 [Compound 297] | EC1.5: A (EC1.5<1.0 uM); Fold Act. (percent maximum fold activation): A (Fold activation >200%)
– | – | A (EC1.5<1.0 uM) | A (Fold activation >200%) | O=C(Nc1cccc(OC[C@H](O)CO)c1)c1cccc2[nH]c(-c3ccc(F)cc3C(F)F)nc12 [Compound 717] | –
– | – | – | – | O=C(Nc1cccnn1)c1cccc2[nH]c(-c3cccc(C(F)(F)F)c3)nc12 [Compound 300] | EC1.5: A (EC1.5<1.0 uM); Fold Act. (percent maximum fold activation): A (Fold activation >200%)
– | – | A (EC1.5<1.0 uM) | A (Fold activation >200%) | O=C(Nc1ccccn1)c1cccc2[nH]c(-c3cnccc3C(F)(F)F)nc12 [Compound 704] | –
A (Fold activation >200%) | < 1000 | – | – | O=C(Nc1ccncn1)c1cccc2[nH]c(-c3ccc(N4CCOCC4)cc3C(F)F)nc12 [Compound 593] | –
– | – | B (EC1.5 1-25 uM) | A (Fold activation >200%) | O=C(Nc1ccccc1OCC(O)CO)c1cccc2[nH]c(-c3cc(F)ccc3C(F)(F)F)nc12 (centres unmarked) [Compound 730] | –
A (Fold activation >200%) | 1000 to 25000 | – | – | O=C(Nc1ccccn1)c1cccc2[nH]c(-c3ccccc3OCCN3CCOCC3)nc12 [Compound 474] | –
– | – | A (EC1.5<1.0 uM) | A (Fold activation >200%) | O=C(Nc1ccccn1)c1cccc2[nH]c(-c3ccc(OCCN4CCOCC4)cc3C(F)F)nc12 [Compound 723, 2-(2-(difluoromethyl)-4-(2-morpholinoethoxy)phenyl)-N-(pyridin-2-yl)-1H-benzo[d]imidazole-7-carboxamide] | –
– | – | A (EC1.5<1.0 uM) | A (Fold activation >200%) | O=C(Nc1cccc(OCC(O)CO)c1)c1cccc2[nH]c(-c3ccc(Cl)cc3C(F)(F)F)nc12 (centres unmarked) [Compound 740] | –
B (Fold Activation <200%) | > 25000 | – | – | O=C(NC1CCOCC1)c1cccc2[nH]c(-c3ccccc3C(F)(F)F)nc12 [Compound 421] | –
A (Fold activation >200%) | 1000 to 25000 | – | – | CC1(C)Cc2cc(-c3nc4c(C(=O)Nc5cccnc5)cccc4[nH]3)ccc2O1 [Compound 499] | –
– | – | A (EC1.5<1.0 uM) | A (Fold activation >200%) | O=C(Nc1cccc(OC2CCNCC2)c1)c1cccc2[nH]c(-c3ccc(F)cc3C(F)(F)F)nc12 [Compound 661] | –
– | – | – | – | O=C(Nc1cnccn1)c1cccc2[nH]c(-c3cccc(C(F)(F)F)c3)nc12 [Compound 203] | EC1.5: A (EC1.5<1.0 uM); Fold Act. (percent maximum fold activation): A (Fold activation >200%)
– | – | A (EC1.5<1.0 uM) | A (Fold activation >200%) | O=C(Nc1nccs1)c1cncc2nc(-c3ccc(OC[C@@H](O)CO)cc3C(F)F)[nH]c12 [Compound 771] | –
– | – | A (EC1.5<1.0 uM) | A (Fold activation >200%) | O=C(Nc1cccc(OC2CCNC2)c1)c1cccc2[nH]c(-c3ccc(F)cc3C(F)(F)F)nc12 (centres unmarked) [Compound 660] | –
– | – | – | – | O=C(Nc1nccs1)c1cccc2[nH]c(-c3ccnc(Cl)c3)nc12 [Compound 231] | EC1.5: A (EC1.5<1.0 uM); Fold Act. (percent maximum fold activation): A (Fold activation >200%)
A (Fold activation >200%) | < 1000 | – | – | Cc1cnc(NC(=O)c2cccc3[nH]c(-c4cnc5c(c4)OCCN5C)nc23)s1 [Compound 440] | –
A (Fold activation >200%) | < 1000 | – | – | O=C(Nc1ccccn1)c1cccc2[nH]c(-c3ccc(OC[C@@H](O)CO)cc3C(F)F)nc12 [Compound 596] | –
